Results on seven molecules are retold here after patent publication US10562898B2, “Substituted benzenesulfonamides as inhibitors of alpha-4 beta-7 integrin activity” (EA PHARMA CO., LTD., priority 2016, dated 2020).

This test relates to mouse colitis model induced by transfer of IL-10−/− cells. The test is described as follows: Mouse colitis model induced by transfer of IL-10−/− cells, intestinal tract weight. The test is classed as in vivo. The settings on record: oral, three times per day for 14 days. On the procedure: As a method for preparing mouse colitis model induced by transfer of IL-10^−/− cells, used was the method described in J Crohns Colitis. 2013 December; 7 (11): e533-42.
Each test substance was suspended in a 0.5% methylcellulose aqueous solution to be contained at 30, 10, 3, or 1 mg/mL, and was orally administered with Terumo syringe (1 mL) and a metal probe for mouse in a dose of 10 ml per kilo gram of animal body weight. The administration was performed three times per day for 14 days.
An intestinal tract weight as a medicinal effect indicator was measured by the following method. On the final necropsy day, the large intestine from the anus to just before the cecum was taken out, the content in the intestinal tract was washed away with physiological saline, the moisture was lightly removed, and the weight of the large intestine was measured. The inhibitory rate (%) in each of compound administered groups was figured out based on the average value of intestinal tract weights per group under the setting in which a colitis onset group was scored at 0% and a normal group was scored at 100%.

For the molecule `CC(C)COC(=O)[C@H](Cc1ccc(-n2c(=O)ccn(C)c2=O)nc1)NC(=O)c1cc(F)c(NS(=O)(=O)c2ccc(NC(=O)C(C)(C)C)cc2)cc1F` [Compound P74], the “Inhibitory Rate (%) (intestinal tract weight)” value (from here on “Inhibitory Rate (%)”) (Dose 30 mg/kg) came to 12.5% and the “Inhibitory Rate (%)” value (Dose 300 mg/kg) is reported as 47.1%.

Turning to `CCOC(=O)[C@H](Cc1ccc(-n2c(=O)c(C)cn(C)c2=O)nc1)NC(=O)c1cc(F)c(NS(=O)(=O)c2ccc(NC(=O)C(C)(C)C)cc2)cc1F` [Compound P69], the “Inhibitory Rate (%)” value runs as follows: (Dose 30 mg/kg) 36.1%; (Dose 300 mg/kg) 51.1%.

In the case of `CCOC(=O)[C@H](Cc1ccc(-n2c(=O)cc(C)n(C)c2=O)nc1)NC(=O)c1cc(F)c(NS(=O)(=O)c2ccc(NC(=O)C(C)(C)C)cc2)cc1F` [Compound P52], the “Inhibitory Rate (%)” value turned out to be 39.9% (Dose 30 mg/kg) and 42.8% (Dose 300 mg/kg).

As to `Cc1cn(C)c(=O)n(-c2ccc(C[C@H](NC(=O)c3cc(F)c(NS(=O)(=O)c4ccc(NC(=O)C(C)(C)C)cc4)cc3F)C(=O)OCC(C)C)cn2)c1=O` [Compound P73], the “Inhibitory Rate (%)” value by setting is: (Dose 30 mg/kg) 21.9%; (Dose 300 mg/kg) 38.8%.

With `Cc1c(C)n(C)c(=O)n(-c2ccc(C[C@H](NC(=O)c3cc(F)c(NS(=O)(=O)c4ccc(NC(=O)C(C)(C)C)cc4)cc3F)C(=O)OC(C)C)cc2)c1=O` [Compound P2], the “Inhibitory Rate (%)” value is, setting by setting: (Dose 10 mg/kg) 24.6%; (Dose 100 mg/kg) 52.2%.

As to `CC(C)OC(=O)[C@H](Cc1ccc(-n2c(=O)ccn(C)c2=O)nc1)NC(=O)c1cc(F)c(NS(=O)(=O)c2ccc(NC(=O)C(C)(C)C)cc2)cc1F` [Compound P59], the “Inhibitory Rate (%)” value by setting is: (Dose 30 mg/kg) 46.7%; (Dose 300 mg/kg) 58.6%.

As for `Cc1cc(=O)n(-c2ccc(C[C@H](NC(=O)c3cc(F)c(NS(=O)(=O)c4ccc(NC(=O)C(C)(C)C)cc4)cc3F)C(=O)OCC(C)C)cn2)c(=O)n1C` [Compound P97], the “Inhibitory Rate (%)” value by setting is: (Dose 30 mg/kg) 17.5%; (Dose 300 mg/kg) 43.6%.
